According to article PMC11593623, “D299T Mutation in CYP76F14 Led to a Decrease in Wine Bouquet Precursor Production in Wine Grape” (Genes, 2024):

Target: T1, 'L35' VvCYP76F14 (Vitis vinifera, UniProt A0A1B2ZBX8, S46N/I107T/K111N/Q175R/V222L/N286S/T325K/G378E/A380T/D383E/A386T)
T1 construct: 499-residue CDS, synthesized (GenScript), E. coli BL21(DE3); purification and tags not described; Arabidopsis CPR ATR1 as redox partner
Experiment: substrate remnant by UPLC-MS
Type: cell-based
Details: Arabidopsis CPR ATR1 as redox partner; 26 °C, 1 h; recombinant E. coli protein, purification not described

T1 sequence (A0A1B2ZBX8 entry or part of it with the stated changes): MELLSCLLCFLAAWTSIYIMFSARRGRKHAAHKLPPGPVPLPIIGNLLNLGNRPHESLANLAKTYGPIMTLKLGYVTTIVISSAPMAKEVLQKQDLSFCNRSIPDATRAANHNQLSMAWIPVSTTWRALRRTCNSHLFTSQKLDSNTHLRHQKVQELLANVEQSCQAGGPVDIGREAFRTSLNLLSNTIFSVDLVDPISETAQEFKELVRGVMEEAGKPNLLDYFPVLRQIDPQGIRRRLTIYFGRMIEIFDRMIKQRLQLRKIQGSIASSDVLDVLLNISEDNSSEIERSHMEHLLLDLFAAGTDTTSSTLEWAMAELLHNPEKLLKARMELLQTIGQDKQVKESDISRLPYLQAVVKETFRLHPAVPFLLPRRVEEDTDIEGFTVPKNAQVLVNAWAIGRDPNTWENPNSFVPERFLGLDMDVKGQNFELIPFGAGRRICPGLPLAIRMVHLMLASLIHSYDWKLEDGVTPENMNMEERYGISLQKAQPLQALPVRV

Row | Structure (SMILES) | substrate remnant by UPLC-MS
1 | C=CC(C)(O)CC/C=C(\C)CO (centres unmarked) [(E)-8-hydroxylinalool] | ‘L35’ VvCYP76F14 exhibited lower remnants of linalool and (E)-8-hydroxylinalool substrates
2 | C=CC(C)(O)CCC=C(C)C (centres unmarked) [linalool] | ‘L35’ VvCYP76F14 exhibited lower remnants of linalool and (E)-8-hydroxylinalool substrates
